# Experimental data from PubChem BioAssay AID248 (DTP/NCI, 2004).
# Where “and” joins values, the source holds several entries; their conditions need not be identical. Identical values can stand only once. Inconclusive results and toxic doses are left out.
# System: L1210 leukemia ip in BDF1 mice, survival T/C
# Experiment: NCI In Vivo Anticancer Drug Screen. Data for tumor model L1210 Leukemia (intraperitoneal) in B6D2F1 (BDF1) mice
# Settings: higher = longer survival
# Outline: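 Value reflects the ratio of survival in compound-treated mice to survival in vehicle-treated controls, with both groups carrying the same transplanted tumor.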
# [1] = endpoint: mean survival time, dose: 25.0 mg/kg/injection, schedule: Q01DX009 (ip), vehicle: Klucel (hydroxypropylcellulose) (HPC)
# [2] = endpoint: mean survival time, dose: 50.0 mg/kg/injection, schedule: Q01DX009 (ip), vehicle: Klucel (hydroxypropylcellulose) (HPC)
# [3] = endpoint: mean survival time, dose: 100.0 mg/kg/injection, schedule: Q04DX003 (ip), vehicle: saline
# [4] = endpoint: mean survival time, dose: 200.0 mg/kg/injection, schedule: Q04DX003 (ip), vehicle: saline
# [5] = endpoint: mean survival time, dose: 400.0 mg/kg/injection, schedule: Q04DX003 (ip), vehicle: saline
# [6] = endpoint: mean survival time, dose: 100.0 mg/kg/injection, schedule: Q01DX001 (ip), vehicle: saline
# [7] = endpoint: mean survival time, dose: 200.0 mg/kg/injection, schedule: Q01DX001 (ip), vehicle: saline
# [8] = endpoint: mean survival time, dose: 100.0 mg/kg/injection, schedule: Q01DX001 (ip), vehicle: Klucel (hydroxypropylcellulose) (HPC)
# [9] = endpoint: mean survival time, dose: 100.0 mg/kg/injection, schedule: Q04DX003 (ip), vehicle: saline with Tween-80
# [10] = endpoint: mean survival time, dose: 200.0 mg/kg/injection, schedule: Q04DX003 (ip), vehicle: saline with Tween-80
# [11] = endpoint: mean survival time, dose: 400.0 mg/kg/injection, schedule: Q04DX003 (ip), vehicle: saline with Tween-80
# [12] = endpoint: mean survival time, dose: 50.0 mg/kg/injection, schedule: Q04DX003 (ip), vehicle: saline with Tween-80
# [13] = endpoint: mean survival time, dose: 100.0 mg/kg/injection, schedule: Q01DX009 (ip), vehicle: Klucel (hydroxypropylcellulose) (HPC)
# [14] = endpoint: mean survival time, dose: 100.0 mg/kg/injection, schedule: Q04DX003 (ip), vehicle: Klucel (hydroxypropylcellulose) (HPC)
# [15] = endpoint: mean survival time, dose: 200.0 mg/kg/injection, schedule: Q04DX003 (ip), vehicle: Klucel (hydroxypropylcellulose) (HPC)
smiles,measurement,setting,value
COc1cc2c(cc1OC)C1(C(=O)c3ccc(OC)c(OC)c3C1=O)N(C(C)=O)C=C2 (configuration not stated),T/C,"endpoint: mean survival time, dose: 12.5 mg/kg/injection, schedule: Q01DX009 (ip), vehicle: Klucel (hydroxypropylcellulose) (HPC)",95 % of control
same,T/C,[1],103 % of control
same,T/C,[2],100 % of control
CCOC(=O)NC(=O)C1C2CC3OC(=O)C1C3C2 (configuration not stated),T/C,[3],102 % of control
same,T/C,[4],102 % of control
same,T/C,[5],98 % of control
C=CCNC(=O)NCC=C,T/C,"endpoint: mean survival time, dose: 6.25 mg/kg/injection, schedule: Q01DX009 (ip), vehicle: saline",114 % of control
same,T/C,"endpoint: mean survival time, dose: 6.25 mg/kg/injection, schedule: Q01DX009 (oral), vehicle: saline",116 % of control
same,T/C,"endpoint: mean survival time, dose: 12.5 mg/kg/injection, schedule: Q01DX009 (ip), vehicle: saline",105 % of control and 106 % of control
same,T/C,"endpoint: mean survival time, dose: 12.5 mg/kg/injection, schedule: Q01DX009 (oral), vehicle: saline",110 % of control
same,T/C,"endpoint: mean survival time, dose: 50.0 mg/kg/injection, schedule: Q01DX009 (oral), vehicle: saline",176 % of control
same,T/C,[6],111 % of control
same,T/C,[7],114 % of control
same,T/C,"endpoint: mean survival time, dose: 200.0 mg/kg/injection, schedule: Q01DX009 (oral), vehicle: saline",100 % of control
same,T/C,"endpoint: mean survival time, dose: 300.0 mg/kg/injection, schedule: Q01DX009 (ip), vehicle: saline",122 % of control
same,T/C,"endpoint: median survival time, dose: 12.5 mg/kg/injection, schedule: Q01DX009 (ip), vehicle: saline",122 % of control
same,T/C,"endpoint: median survival time, dose: 12.5 mg/kg/injection, schedule: Q01DX009 (sc), vehicle: saline",116 % of control
same,T/C,"endpoint: median survival time, dose: 50.0 mg/kg/injection, schedule: Q01DX009 (ip), vehicle: saline",112 % of control and 122 % of control
same,T/C,"endpoint: median survival time, dose: 100.0 mg/kg/injection, schedule: Q01DX001 (ip), vehicle: saline",105 % of control
same,T/C,"endpoint: median survival time, dose: 100.0 mg/kg/injection, schedule: Q01DX001 (sc), vehicle: saline",105 % of control
same,T/C,"endpoint: median survival time, dose: 100.0 mg/kg/injection, schedule: Q04DX003 (ip), vehicle: saline",105 % of control
same,T/C,"endpoint: median survival time, dose: 100.0 mg/kg/injection, schedule: Q04DX003 (sc), vehicle: saline",111 % of control
same,T/C,"endpoint: median survival time, dose: 200.0 mg/kg/injection, schedule: Q01DX001 (ip), vehicle: saline",111 % of control
same,T/C,"endpoint: median survival time, dose: 200.0 mg/kg/injection, schedule: Q01DX001 (sc), vehicle: saline",111 % of control
same,T/C,"endpoint: median survival time, dose: 200.0 mg/kg/injection, schedule: Q01DX009 (ip), vehicle: saline",100 % of control and 122 % of control
same,T/C,"endpoint: median survival time, dose: 200.0 mg/kg/injection, schedule: Q04DX003 (ip), vehicle: saline",116 % of control
same,T/C,"endpoint: median survival time, dose: 200.0 mg/kg/injection, schedule: Q04DX003 (sc), vehicle: saline",116 % of control
COC1OC2COC(c3ccccc3)OC2C2C1N2C#N (configuration not stated),T/C,"endpoint: mean survival time, dose: 25.0 mg/kg/injection, schedule: Q01DX001 (ip), vehicle: Klucel (hydroxypropylcellulose) (HPC)",100 % of control
same,T/C,"endpoint: mean survival time, dose: 50.0 mg/kg/injection, schedule: Q01DX001 (ip), vehicle: Klucel (hydroxypropylcellulose) (HPC)",93 % of control
same,T/C,[8],100 % of control
COc1cc2c(cc1OC)-c1nc(C)sc1CC2,T/C,[9],98 % of control
same,T/C,[10],95 % of control
same,T/C,[11],98 % of control
CC#C[P+](Cc1ccccc1)(c1ccccc1)c1ccccc1,T/C,"endpoint: mean survival time, dose: 9.5 mg/kg/injection, schedule: Q01DX001 (ip), vehicle: saline",108 % of control
same,T/C,"endpoint: mean survival time, dose: 19.0 mg/kg/injection, schedule: Q01DX001 (ip), vehicle: saline",117 % of control
O=[N+]([O-])c1cccc(CS(=O)(=O)c2ccccc2)c1-c1c(CS(=O)(=O)c2ccccc2)cccc1[N+](=O)[O-],T/C,"endpoint: mean survival time, dose: 100.0 mg/kg/injection, schedule: Q04DX003 (ip), vehicle: saline sonified",101 % of control
same,T/C,"endpoint: mean survival time, dose: 200.0 mg/kg/injection, schedule: Q04DX003 (ip), vehicle: saline sonified",95 % of control
same,T/C,"endpoint: mean survival time, dose: 400.0 mg/kg/injection, schedule: Q04DX003 (ip), vehicle: saline sonified",94 % of control
CCOC(=O)C1CCN(C(=O)c2ccccc2)c2scc(-c3ccccc3)c2C1=O (configuration not stated),T/C,[12],94 % of control
same,T/C,[9],100 % of control
same,T/C,[10],92 % of control
same,T/C,[11],97 % of control
CCOC(=O)c1c(C)c(C(=O)CC)c(C)n1C(=O)c1ccccc1,T/C,[6],100 % of control
same,T/C,[7],102 % of control
same,T/C,"endpoint: mean survival time, dose: 400.0 mg/kg/injection, schedule: Q01DX001 (ip), vehicle: saline",96 % of control
CN(C)Cc1ccccc1COC(=O)c1ccc(Br)cc1,T/C,"endpoint: mean survival time, dose: 50.0 mg/kg/injection, schedule: Q04DX002 (ip), vehicle: Klucel (hydroxypropylcellulose) (HPC)",98 % of control
same,T/C,"endpoint: mean survival time, dose: 100.0 mg/kg/injection, schedule: Q04DX002 (ip), vehicle: Klucel (hydroxypropylcellulose) (HPC)",105 % of control
same,T/C,"endpoint: mean survival time, dose: 200.0 mg/kg/injection, schedule: Q04DX002 (ip), vehicle: Klucel (hydroxypropylcellulose) (HPC)",94 % of control
CCOC(=O)/C(C#N)=N/O,T/C,"endpoint: mean survival time, dose: 18.8 mg/kg/injection, schedule: Q01DX009 (ip), vehicle: saline",94 % of control
same,T/C,"endpoint: mean survival time, dose: 18.8 mg/kg/injection, schedule: Q04DX003 (ip), vehicle: saline",95 % of control
same,T/C,"endpoint: mean survival time, dose: 37.5 mg/kg/injection, schedule: Q01DX009 (ip), vehicle: saline",91 % of control
same,T/C,"endpoint: mean survival time, dose: 37.5 mg/kg/injection, schedule: Q04DX003 (ip), vehicle: saline",97 % of control
same,T/C,"endpoint: mean survival time, dose: 75.0 mg/kg/injection, schedule: Q04DX003 (ip), vehicle: saline",97 % of control
COc1ccc(COC2C(CO)OC(n3ccc(N)nc3=O)C2O)cc1 (configuration not stated),T/C,"endpoint: mean survival time, dose: 100.0 mg/kg/injection, schedule: Q01DX005 (ip), vehicle: saline",100 % of control
same,T/C,"endpoint: mean survival time, dose: 200.0 mg/kg/injection, schedule: Q01DX005 (ip), vehicle: saline",94 % of control
Cc1cnc2c(NC(=O)CCl)nn(C)c2n1,T/C,[1],98 % of control
same,T/C,[2],93 % of control
same,T/C,[13],93 % of control and 91 % of control
same,T/C,[14],91 % of control
same,T/C,[15],93 % of control
C=CS(=O)(=O)c1ccc2ccccc2c1,T/C,"endpoint: mean survival time, dose: 10.0 mg/kg/injection, schedule: Q04DX002 (ip), vehicle: Klucel (hydroxypropylcellulose) (HPC)",118 % of control
same,T/C,"endpoint: mean survival time, dose: 20.0 mg/kg/injection, schedule: Q04DX002 (ip), vehicle: Klucel (hydroxypropylcellulose) (HPC)",96 % of control
same,T/C,"endpoint: mean survival time, dose: 40.0 mg/kg/injection, schedule: Q04DX002 (ip), vehicle: Klucel (hydroxypropylcellulose) (HPC)",100 % of control
CC(C)(C)CN,T/C,"endpoint: mean survival time, dose: 50.0 mg/kg/injection, schedule: Q01DX009 (ip), vehicle: saline",98 % of control
same,T/C,"endpoint: mean survival time, dose: 100.0 mg/kg/injection, schedule: Q01DX009 (ip), vehicle: saline",93 % of control
same,T/C,[3],102 % of control
same,T/C,[4],98 % of control
COc1ccccc1NC(=O)Nc1ccccc1C,T/C,[13],96 % of control
same,T/C,[14],94 % of control
same,T/C,"endpoint: mean survival time, dose: 200.0 mg/kg/injection, schedule: Q01DX009 (ip), vehicle: Klucel (hydroxypropylcellulose) (HPC)",89 % of control
same,T/C,[15],100 % of control
same,T/C,"endpoint: mean survival time, dose: 400.0 mg/kg/injection, schedule: Q01DX009 (ip), vehicle: Klucel (hydroxypropylcellulose) (HPC)",94 % of control
same,T/C,"endpoint: mean survival time, dose: 400.0 mg/kg/injection, schedule: Q04DX003 (ip), vehicle: Klucel (hydroxypropylcellulose) (HPC)",90 % of control
C1=CC2(CC1)OCCO2,T/C,"endpoint: mean survival time, dose: 50.0 mg/kg/injection, schedule: Q01DX009 (ip), vehicle: saline with Tween-80",106 % of control
same,T/C,[12],91 % of control
same,T/C,"endpoint: mean survival time, dose: 100.0 mg/kg/injection, schedule: Q01DX009 (ip), vehicle: saline with Tween-80",104 % of control
same,T/C,[9],102 % of control
same,T/C,"endpoint: mean survival time, dose: 200.0 mg/kg/injection, schedule: Q01DX009 (ip), vehicle: saline with Tween-80",106 % of control
same,T/C,[10],92 % of control
same,T/C,"endpoint: mean survival time, dose: 400.0 mg/kg/injection, schedule: Q01DX009 (ip), vehicle: saline with Tween-80",104 % of control
same,T/C,[11],102 % of control
COc1ccc(/C=C/C(=O)c2ccc3cc(OC)c(OC)cc3c2)cc1OC,T/C,[3],91 % of control
same,T/C,[4],89 % of control
same,T/C,[5],87 % of control
C=CC/C=C/C,T/C,[8],93 % of control
same,T/C,"endpoint: mean survival time, dose: 200.0 mg/kg/injection, schedule: Q01DX001 (ip), vehicle: Klucel (hydroxypropylcellulose) (HPC)",109 % of control
same,T/C,"endpoint: mean survival time, dose: 400.0 mg/kg/injection, schedule: Q01DX001 (ip), vehicle: Klucel (hydroxypropylcellulose) (HPC)",100 % of control
CCC(C)C(CN)(CCCCN1CCCCC1)c1cccc2ccccc12 (configuration not stated),T/C,[9],97 % of control
same,T/C,[10],90 % of control
CC(=O)Nc1cc(C(=O)Nc2ccc(C)cc2C)ccc1C,T/C,"endpoint: mean survival time, dose: 50.0 mg/kg/injection, schedule: Q04DX003 (ip), vehicle: Klucel (hydroxypropylcellulose) (HPC)",92 % of control
same,T/C,[14],92 % of control
same,T/C,[15],92 % of control
